Source: PubChem BioAssay (NCI)
Where “and” joins values, the source holds several entries; their conditions need not be identical. Identical values can stand only once.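 48-hour exposure; five concentrations; linearly interpolated endpoints. The concentration for 50% growth inhibition is given as GI50. TGI denotes the concentration required for complete inhibition of growth.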

How the values were obtained:
Assay in all cases: NCI-60 cell line screen, 48 h
LOX IMVI melanoma = tested on: LOX IMVI melanoma
RXF 393 renal = tested on: RXF 393 renal
COLO 205 colon = tested on: COLO 205 colon
HS 578T breast = tested on: HS 578T breast
SW-620 colon = tested on: SW-620 colon
HCC-2998 colon = tested on: HCC-2998 colon
SF-295 CNS = tested on: SF-295 CNS
UO-31 renal = tested on: UO-31 renal
PC-3 prostate = tested on: PC-3 prostate
CAKI-1 renal = tested on: CAKI-1 renal
NCI-H23 lung = tested on: NCI-H23 lung
IGROV1 ovarian = tested on: IGROV1 ovarian
CCRF-CEM leukemia = tested on: CCRF-CEM leukemia
NCI/ADR-RES ovarian = tested on: NCI/ADR-RES ovarian
OVCAR-4 ovarian = tested on: OVCAR-4 ovarian
A498 renal = tested on: A498 renal
786-0 renal = tested on: 786-0 renal
TK-10 renal = tested on: TK-10 renal
ACHN renal = tested on: ACHN renal
MCF7 breast = tested on: MCF7 breast
MOLT-4 leukemia = tested on: MOLT-4 leukemia
SF-539 CNS = tested on: SF-539 CNS
HOP-62 NSCLC = tested on: HOP-62 NSCLC
MDA-MB-435 = tested on: MDA-MB-435
OVCAR-8 ovarian = tested on: OVCAR-8 ovarian
HOP-92 NSCLC = tested on: HOP-92 NSCLC
NCI-H460 lung = tested on: NCI-H460 lung
HCT-116 colon = tested on: HCT-116 colon
BT-549 breast = tested on: BT-549 breast
KM12 colon = tested on: KM12 colon
HL-60(TB) leukemia = tested on: HL-60(TB) leukemia
UACC-257 melanoma = tested on: UACC-257 melanoma
HCT-15 colon = tested on: HCT-15 colon
SK-MEL-5 melanoma = tested on: SK-MEL-5 melanoma
HT29 colon = tested on: HT29 colon
SK-MEL-28 melanoma = tested on: SK-MEL-28 melanoma
U251 CNS = tested on: U251 CNS
MDA-MB-231 breast = tested on: MDA-MB-231 breast
SF-268 CNS = tested on: SF-268 CNS
DU-145 prostate = tested on: DU-145 prostate
SNB-75 CNS = tested on: SNB-75 CNS
K-562 leukemia = tested on: K-562 leukemia
EKVX NSCLC = tested on: EKVX NSCLC
SNB-19 CNS = tested on: SNB-19 CNS
SK-MEL-2 melanoma = tested on: SK-MEL-2 melanoma
T-47D breast = tested on: T-47D breast
SR leukemia = tested on: SR leukemia
UACC-62 melanoma = tested on: UACC-62 melanoma
NCI-H226 lung = tested on: NCI-H226 lung
RPMI-8226 leukemia = tested on: RPMI-8226 leukemia
SK-OV-3 ovarian = tested on: SK-OV-3 ovarian
M14 melanoma = tested on: M14 melanoma
A549 NSCLC = tested on: A549 NSCLC
MALME-3M melanoma = tested on: MALME-3M melanoma
OVCAR-3 ovarian = tested on: OVCAR-3 ovarian
SN12C renal = tested on: SN12C renal
NCI-H522 lung = tested on: NCI-H522 lung
OVCAR-5 ovarian = tested on: OVCAR-5 ovarian

In the case of `CC1=NN(c2nc(N)nc(C(C)Cl)n2)C(C)(C)C1` (stereo not drawn), the TGI (LOX IMVI melanoma) is reported as > 100000 nM, the TGI (RXF 393 renal) is reported as > 100000 nM and the TGI (COLO 205 colon) is reported as > 100000 nM. For the same compound, the TGI (HS 578T breast) was > 100000 nM, the TGI (SW-620 colon) was > 100000 nM and the TGI (HCC-2998 colon) was > 100000 nM. The TGI (SF-295 CNS) was > 100000 nM, the TGI (UO-31 renal) was > 100000 nM and the TGI (PC-3 prostate) was > 100000 nM. For the same compound, the TGI (CAKI-1 renal) was > 100000 nM, the TGI (NCI-H23 lung) was > 100000 nM and the TGI (IGROV1 ovarian) was > 100000 nM. For the same compound, the TGI (CCRF-CEM leukemia) was > 100000 nM, the TGI (NCI/ADR-RES ovarian) was > 100000 nM and the TGI (OVCAR-4 ovarian) was > 100000 nM. The TGI (A498 renal) was > 100000 nM, the TGI (786-0 renal) was > 100000 nM and the TGI (TK-10 renal) was > 100000 nM. The TGI (ACHN renal) was > 100000 nM, the TGI (MCF7 breast) was > 100000 nM and the TGI (MOLT-4 leukemia) was > 100000 nM. For the same compound, the TGI (SF-539 CNS) was > 100000 nM, the TGI (HOP-62 NSCLC) was > 100000 nM and the TGI (MDA-MB-435) was > 100000 nM. The TGI (OVCAR-8 ovarian) was > 100000 nM, the TGI (HOP-92 NSCLC) was > 100000 nM and the TGI (NCI-H460 lung) was > 100000 nM. The TGI (HCT-116 colon) was > 100000 nM, the TGI (BT-549 breast) was > 100000 nM and the TGI (KM12 colon) was > 100000 nM. The TGI (HL-60(TB) leukemia) was > 100000 nM, the TGI (UACC-257 melanoma) was > 100000 nM and the TGI (HCT-15 colon) was > 100000 nM. For the same compound, the TGI (SK-MEL-5 melanoma) was > 100000 nM, the TGI (HT29 colon) was > 100000 nM and the TGI (SK-MEL-28 melanoma) was > 100000 nM. The TGI (U251 CNS) was > 100000 nM, the TGI (MDA-MB-231 breast) was > 100000 nM and the TGI (SF-268 CNS) was > 100000 nM. For the same compound, the TGI (DU-145 prostate) was > 100000 nM, the TGI (SNB-75 CNS) was > 100000 nM and the TGI (K-562 leukemia) was > 100000 nM. For the same compound, the TGI (EKVX NSCLC) was > 100000 nM, the TGI (SNB-19 CNS) was > 100000 nM and the TGI (SK-MEL-2 melanoma) was > 100000 nM. For the same compound, the TGI (T-47D breast) was > 100000 nM, the TGI (SR leukemia) was > 100000 nM and the TGI (UACC-62 melanoma) was > 100000 nM. For the same compound, the TGI (NCI-H226 lung) was > 100000 nM, the TGI (RPMI-8226 leukemia) was > 100000 nM and the TGI (SK-OV-3 ovarian) was > 100000 nM. The TGI (M14 melanoma) was > 100000 nM.

In the case of `CC[C@H](C)[C@H](NC(=O)[C@H]1CCCCN1C)C(=O)N(C)[C@H](C[C@@H](OC(C)=O)c1nc(C(=O)NC23CC(C(=O)OC)(C2)C3)cs1)C(C)C`, the GI50 (LOX IMVI melanoma) is reported as 0.54 nM and 3.25 nM, the TGI (LOX IMVI melanoma) is reported as > 32500 nM and the GI50 (A549 NSCLC) is reported as 3.78 nM and 3.25 nM. The TGI (A549 NSCLC) was > 32500 nM, the GI50 (COLO 205 colon) was 1.52 nM and 3.25 nM and the TGI (COLO 205 colon) was 29.9 nM and 33.9 nM. The GI50 (HS 578T breast) was 0.388 nM and 3.25 nM, the TGI (HS 578T breast) was > 32500 nM and the GI50 (SW-620 colon) was 0.424 nM and 3.25 nM. The TGI (SW-620 colon) was > 32500 nM, the GI50 (HCC-2998 colon) was 2.99 nM and 3.25 nM and the TGI (HCC-2998 colon) was > 32500 nM. For the same compound, the GI50 (SF-295 CNS) was 1.28 nM and 3.25 nM, the GI50 (UO-31 renal) was 10.9 nM and 5.64 nM and the TGI (UO-31 renal) was > 32500 nM. For the same compound, the GI50 (PC-3 prostate) was 1.29 nM and 3.25 nM, the TGI (PC-3 prostate) was > 32500 nM and the GI50 (CAKI-1 renal) was 4.85 nM. The GI50 (NCI-H23 lung) was 5.11 nM and 3.25 nM, the TGI (NCI-H23 lung) was > 32500 nM and the GI50 (IGROV1 ovarian) was 1.32 nM and 3.25 nM. For the same compound, the TGI (IGROV1 ovarian) was > 32500 nM, the GI50 (CCRF-CEM leukemia) was 0.402 nM and 3.25 nM and the TGI (CCRF-CEM leukemia) was 1470 nM. For the same compound, the GI50 (NCI/ADR-RES ovarian) was 52.2 nM and 47.9 nM, the TGI (NCI/ADR-RES ovarian) was 371 nM and the GI50 (OVCAR-4 ovarian) was 42.4 nM and 72.7 nM. The TGI (OVCAR-4 ovarian) was > 32500 nM, the GI50 (A498 renal) was 7.23 nM and 3.25 nM and the TGI (A498 renal) was 277 nM. The GI50 (786-0 renal) was 0.64 nM and 3.25 nM, the TGI (786-0 renal) was > 32500 nM and the GI50 (TK-10 renal) was 45.8 nM. For the same compound, the GI50 (ACHN renal) was 8.06 nM and 3.25 nM, the TGI (ACHN renal) was > 32500 nM and the TGI (MCF7 breast) was > 32500 nM. For the same compound, the GI50 (MOLT-4 leukemia) was 0.696 nM and 3.25 nM, the TGI (MOLT-4 leukemia) was > 32500 nM and the GI50 (SF-539 CNS) was 0.553 nM and 3.25 nM. For the same compound, the TGI (SF-539 CNS) was 7.79 nM and 6.01 nM, the GI50 (HOP-62 NSCLC) was 0.538 nM and 3.25 nM and the GI50 (MDA-MB-435) was 0.137 nM and < 3.25 nM. The TGI (MDA-MB-435) was 1.04 nM and < 3.25 nM, the GI50 (OVCAR-8 ovarian) was 0.56 nM and 3.25 nM and the TGI (OVCAR-8 ovarian) was > 32500 nM. For the same compound, the GI50 (HOP-92 NSCLC) was 0.734 nM, the GI50 (NCI-H460 lung) was 0.7 nM and 3.25 nM and the TGI (NCI-H460 lung) was > 32500 nM. For the same compound, the GI50 (MALME-3M melanoma) was 7.56 nM and 30.5 nM, the TGI (MALME-3M melanoma) was > 32500 nM and the GI50 (HCT-116 colon) was 0.878 nM and 3.25 nM. The TGI (HCT-116 colon) was > 32500 nM, the GI50 (BT-549 breast) was 0.48 nM and 3.25 nM and the TGI (BT-549 breast) was 25.3 nM and 31.8 nM. The GI50 (KM12 colon) was 3.19 nM and 3.25 nM, the TGI (KM12 colon) was 6600 nM and the GI50 (HL-60(TB) leukemia) was 0.186 nM and < 3.25 nM. The TGI (HL-60(TB) leukemia) was 0.698 nM and < 3.25 nM, the GI50 (HCT-15 colon) was 3.33 nM and 3.25 nM and the TGI (HCT-15 colon) was > 32500 nM. For the same compound, the GI50 (SK-MEL-5 melanoma) was 0.748 nM and 3.25 nM, the TGI (SK-MEL-5 melanoma) was 29.9 nM and 38.4 nM and the GI50 (HT29 colon) was 0.433 nM and 3.25 nM. For the same compound, the TGI (HT29 colon) was 10.3 nM and 11 nM, the TGI (SK-MEL-28 melanoma) was > 32500 nM and the GI50 (U251 CNS) was 0.83 nM and 3.25 nM. The TGI (U251 CNS) was > 32500 nM, the GI50 (MDA-MB-231 breast) was 1.63 nM and 3.63 nM and the TGI (MDA-MB-231 breast) was > 32500 nM. The GI50 (SF-268 CNS) was 0.937 nM and 3.25 nM, the TGI (SF-268 CNS) was > 32500 nM and the GI50 (DU-145 prostate) was 0.449 nM and 3.25 nM. The TGI (DU-145 prostate) was > 32500 nM, the GI50 (SNB-75 CNS) was 0.382 nM and 3.25 nM and the TGI (SNB-75 CNS) was > 32500 nM. For the same compound, the GI50 (OVCAR-3 ovarian) was 0.256 nM and < 3.25 nM, the TGI (OVCAR-3 ovarian) was 15.8 nM and < 3.25 nM and the GI50 (SN12C renal) was 0.654 nM and 3.25 nM. For the same compound, the TGI (SN12C renal) was > 32500 nM, the TGI (K-562 leukemia) was > 32500 nM and the GI50 (EKVX NSCLC) was 47.5 nM and 17.5 nM. The TGI (EKVX NSCLC) was > 32500 nM, the GI50 (SNB-19 CNS) was 1.05 nM and 3.25 nM and the TGI (SNB-19 CNS) was > 32500 nM. For the same compound, the GI50 (SK-MEL-2 melanoma) was 1.02 nM and 3.25 nM, the TGI (SK-MEL-2 melanoma) was 34.7 nM and the GI50 (NCI-H522 lung) was 0.156 nM and < 3.25 nM. The TGI (NCI-H522 lung) was 0.901 nM and < 3.25 nM, the GI50 (T-47D breast) was 0.499 nM and the TGI (SR leukemia) was > 32500 nM. For the same compound, the GI50 (UACC-62 melanoma) was 0.614 nM and 3.25 nM, the TGI (UACC-62 melanoma) was > 32500 nM and the GI50 (NCI-H226 lung) was 133 nM. For the same compound, the TGI (NCI-H226 lung) was 9180 nM, the TGI (OVCAR-5 ovarian) was > 32500 nM and the GI50 (RPMI-8226 leukemia) was 0.328 nM and 3.25 nM. For the same compound, the TGI (RPMI-8226 leukemia) was 12100 nM, the GI50 (SK-OV-3 ovarian) was 2.2 nM and 3.57 nM and the TGI (SK-OV-3 ovarian) was > 32500 nM. The GI50 (M14 melanoma) was 5.54 nM and 3.25 nM and the TGI (M14 melanoma) was 6.18 nM.
